Measurements taken from patent US20090142304A1, “Composition for Improving Intestinal Flora” (priority 2005, published 2009).

Assays:
Format in all cases: in vivo
[1] = tested on: lactic acid bacteria belonging to genus Lactobacillus; assay: Growth effect on lactic acid bacteria in human intestine by intake of 1-kestose (Example 1, fecal count, Mitsuoka method)
Source text: (§1) Quantitative determination of intestinal lactic acid bacteria counts can be carried out by a conventional method. For example, the lactic acid bacteria counts can be quantitatively determined according to the Mitsuoka's method (Mitsuoka Tomotari, “Chounaikin no Sekai (The World of Intestinal Bacteria)”, Sobunsha Co., Ltd., Tokyo, p. 53-65) by sampling feces of a tested subject. The intestinal Bifidobacterium count can be similarly quantitatively determined.
(§2) A sample composition containing 99.4% of 1-kestose, 0.15% of acesulfame potassium, 0.32% of sucralose and 0.13% of Sweetness Enhancer ME-2208T (Trade Name) (Firmenich SA) was used (all by % by weight).
In a test, each 10 g per day of the sample composition was fed orally for 2 months to 7 male and female test subjects with mild diabetes in the age range of 20 to 70 years. Samples of the feces of the respective subjects were collected just before the start of intake (month 0), 2 months after the start of intake (month 2) and 1 month after the end of intake (month 3), and the lactic acid bacteria counts in the samples were quantitatively determined by the method of Mitsuoka (Mitsuoka Tomotari “Chounaikin no Sekai (The World of Intestinal Bacteria)” Sobunsha Co., Ltd., Tokyo, p. 53-65). Similarly, the Bifidobacterium counts in the samples were quantitatively determined.
By 5 out of the subjects 7, lactic acid bacteria belonging to genus Lactobacillus were detected at 10^6 CFU/g-feces or higher, and the changes of the lactic acid bacteria count and the Bifidobacterium count by the intake of 1-kestose with respect to the 5 subjects are shown in the Figures.

Bifidobacterium [2] = assay: Growth effect on Bifidobacterium in human feces by intake of 1-kestose (Example 1); settings: 10 g per day orally for 2 months, 5 mild diabetes subjects
Source text: as §1, §2
In a test, each 10 g per day of the sample composition was fed orally for 2 months to 7 male and female test subjects with mild diabetes in the age range of 20 to 70 years. Samples of the feces of the respective subjects were collected just before the start of intake (month 0), 2 months after the start of intake (month 2) and 1 month after the end of intake (month 3), and the lactic acid bacteria counts in the samples were quantitatively determined by the method of Mitsuoka (Mitsuoka Tomotari “Chounaikin no Sekai (The World of Intestinal Bacteria)” Sobunsha Co., Ltd., Tokyo, p. 53-65). Similarly, the Bifidobacterium counts in the samples were quantitatively determined. […]

Bifidobacterium [3] = assay: Growth effect on Bifidobacterium in human feces by intake of Meioligo P (Example 2); settings: fed as Meioligo P 3 g per day (1.05 g 1-kestose)
Source text: as §1
(§3) As a sample composition, Meioligo P (Trade Name) (Meiji Seika Kaisha), which was a composition containing 35% of 1-kestose, 55% of nystose and 10% of fructo-furanosyl nystose, was used.
(§4) In a test, each 3 g per day of the sample composition (1.05 g based on the weight of 1-kestose) was fed orally for 2 months to 7 healthy female test subjects in the age range of 19 to 41 years. Samples of the feces of the respective subjects were then collected just before the start of intake (week 0), 2 weeks after the start of intake (week 2) and 2 weeks after the end of intake (week 4), and the lactic acid bacteria count and the Bifidobacterium count in the samples were quantitatively determined similarly to Example 1.
(§5) The changes of the lactic acid bacteria count and the Bifidobacterium count in the feces by the intake of 1-kestose with respect to the 7 subjects are shown in the Figures.

Lactobacillus sp. = assay: Growth effect on lactic acid bacteria in human feces by intake of Meioligo P (Example 2)
Source text: as §1, §3, §4, §5

Q: Which results are given for `OC[C@H]1O[C@@](CO)(OC[C@@]2(O[C@H]3O[C@H](CO)[C@@H](O)[C@H](O)[C@H]3O)O[C@H](CO)[C@@H](O)[C@@H]2O)[C@@H](O)[C@@H]1O` [1-kestose]?
A: increase of mean Lactobacillus sp. count, after vs before the intake ([1]; 10 g per day orally for 2 months, 5 mild diabetes subjects): about 10 fold; effect of the composition containing 1-kestose by lactic acid bacteria count in the feces ([1]; human whose lactic acid bacteria count in the feces is ≧10^6 CFU/g or higher (Example 1)): stronger; subjects in whom the count of Lactobacillus sp. was increased by intake ([1]; sample composition 99.4% 1-kestose, 10 g per day orally for 2 months, subjects with mild diabetes with Lactobacillus at 10^6 CFU/g-feces or higher (5 of 7)): 4 out of the 5; increase of mean Bifidobacterium count, after vs before the intake (Bifidobacterium [2]): about 7 fold; subjects in whom the Bifidobacterium count was increased (Bifidobacterium [2]; sample composition 99.4% 1-kestose): all of 5; subjects in whom the Bifidobacterium count was increased (Bifidobacterium [3]; 7 healthy female subjects): 6 out of the 7; increase of mean Bifidobacterium count, after vs before the intake (Bifidobacterium [3]; 7 healthy females): about 2 fold; increase of mean Lactobacillus sp. count, after vs before the intake (Lactobacillus sp.; fed as Meioligo P 3 g per day (1.05 g 1-kestose), 7 healthy females): about 20 fold; increase of Lactobacillus sp. count in each of the 4 subjects with increase (Lactobacillus sp.; fed as Meioligo P 3 g per day (1.05 g 1-kestose), the 4 subjects with increase): ≥ 10 fold; subjects in whom the count of Lactobacillus sp. was increased by intake (Lactobacillus sp.; fed as Meioligo P (35% 1-kestose, 55% nystose, 10% fructo-furanosyl nystose), 3 g per day (1.05 g 1-kestose) orally, 7 healthy female subjects): 4 out of 7
